Results from patent publication US20200085839A1, “COMBINATION OF IMMUNOTHERAPEUTICS AND BISFLUOROALKYL-1,4-BENZODIAZEPINONE COMPOUNDS FOR TREATING LYMPHOMAS” (Ayala Pharmaceuticals Inc., priority 2018, published 2020).

System: U266 cells (MM cell line)
Assay: Cell-bound BCMA by flow cytometry
Format: cell-based, human
Settings: 24 h, FIG. 1
Protocol: FIG. 1. Levels of cell-bound BCMA en multiple myelma (MM) cells Incubated with γ-secretase inhibitors (GSIs). U266 cells (MM cell line) were incubated with 0.3 nM, 0.5 nM, 1 nM or 3 nM of GSI (Compound 1, Compound 22, LY3039478 or PF3084014) for 24 hours, and BCMA levels were measured by flow cytometry.
For detecting levels of soluble and cell-bound BCMA, U266 cells (MM cell line) were seeded at 1×10^5 cells/well in a total volume of 250 μl into a 96-well plate. The cells were cultured in RPMI medium supplemented with 10% FCS. GSIs (Compound 1, Compound 22, LY3039478 (Lilly), and PF3084014 (Pfizer)) were added to U266 cell cultures at a concentration of 0.3 nM, 0.5 nM, 1 nM and 3 nM for soluble BCMA and at a concentration of […]. Following 24 hours of incubation at 37° C., the cells were collected, and BCMA levels were evaluated in both the cells (cell-bound BCMA) and the cell media (soluble BCMA). Cells were stained with an anti-BCMA antibody (PE anti-human CD269 BCMA, Biolegend). Soluble BCMA levels were analyzed by ELISA (Human BCMA/TNFRSF17 DuoSet kit: R&D Systems).

| SMILES | cell-bound BCMA levels |
| --- | --- |
| C[C@H](NC(=O)CCC(F)(F)F)C(=O)N[C@@H]1C(=O)N(CCO)c2ncccc2-c2ccccc21 [LY3039478, reference compound] | increased cell-bound BCMA levels |
| CCC[C@H](N[C@H]1CCc2cc(F)cc(F)c2C1)C(=O)Nc1cn(C(C)(C)CNCC(C)(C)C)cn1 [PF3084014, reference compound] | increased cell-bound BCMA levels |
